Data published in patent publication US8679514B2, “Fungicidal mixtures based on azolopyrimidinylamines” (BASF SE, priority 2005, dated 2014).
Like-named read-outs stand apart in the source and are kept apart here.

Legend:
Phytophthora infestans [1] = test: whole plant or invertebrate; assay type: in vivo; details: for Observed activity (%): in vivo
Phytophthora infestans [2] = test: whole plant or invertebrate; assay type: in vivo; details: 144 h, read-out: Efficacy in % of the untreated control
Phytophthora infestans [3] = test: microbe, parasite or virus in culture; assay type: cell-based
Botrytis cinerea = test: Activity against the gray mold pathogen Botrytis cinerea in the microtiter test; assay type: cell-based; details: single active compound; for inhibition at 0.25 µg/mL: Conc. 0.25 mg/l; for inhibition at 1 µg/mL: Conc. 1 mg/l; for inhibition at 4 µg/mL: Conc. 4 mg/l; for inhibition at […]: Conc. 0.063 mg/l; for inhibition at 16 µg/mL: Conc. 16 mg/l
Pyricularia oryzae = test: microbe, parasite or virus in culture; assay type: cell-based
Plasmopara viticola [4] = test: whole plant or invertebrate; assay type: in vivo; details: read-out: Observed activity (%)
Plasmopara viticola [5] = test: whole plant or invertebrate; assay type: in vivo; details: read-out: Observed activity (%); remark: listed apart in the source
[6] = Phytophthora infestans, read-out: Observed activity (%)
[7] = Botrytis cinerea, read-out: Observed activity (%)
[8] = Pyricularia oryzae, read-out: Observed activity (%)

manganese ethylenebis(dithiocarbanate) zinc complex [mancozeb]
Observed activity (%) (Phytophthora infestans [1]): 11%

CCCCCCCCc1c(CCC)nc2ncnn2c1N [Compound I-180, 6-octyl-5-propyl-[1,2,4]triazolo[1,5-a]pyrimidin-7-ylamine]
pest or weed control at 16 ppm (Phytophthora infestans [2]): 0%
pest or weed control at 63 ppm (Phytophthora infestans [2]): 33%
inhibition at 0.016 µg/mL (Phytophthora infestans [3]; [6]): 0%
inhibition at 0.25 µg/mL (Phytophthora infestans [3]; [6]): 8%
inhibition at 1 µg/mL (Phytophthora infestans [3]; [6]): 17%
inhibition at […] (Phytophthora infestans [3]; [6]): 2%
inhibition at 0.016 µg/mL (Botrytis cinerea; Botrytis cinerea, Conc. 0.016 mg/l, read-out: Observed activity (%)): 3%
inhibition at 0.25 µg/mL (Botrytis cinerea; [7]): 13%
inhibition at 1 µg/mL (Pyricularia oryzae; [8]): 15%

CCCCCCCCc1c(COC)nc2ncnn2c1N [Compound I-245, 5-methoxymethyl-6-octyl-[1,2,4]triazolo[1,5-a]pyrimidin-7-ylamine]
pest or weed control at 4 ppm (Phytophthora infestans [2]): 0%
inhibition at 0.016 µg/mL (Phytophthora infestans [3]; [6]): 0%
inhibition at 0.25 µg/mL (Phytophthora infestans [3]; [6]): 12%
inhibition at […] (Phytophthora infestans [3]; [6]): 0%
inhibition at 0.25 µg/mL (Botrytis cinerea; [7]): 0%
inhibition at 0.25 µg/mL (Pyricularia oryzae; [8]): 10%
inhibition at 16 µg/mL (Pyricularia oryzae; [8]): 23%

O=S(=O)([O-])[O-].[Cu+2] [CuSO4, reference compound]
Observed activity (%) (Botrytis cinerea; Conc. 63 mg/l): 0%
Observed activity (%) (Pyricularia oryzae): 0%

Cc1ccc(C(C)NC(=O)[C@@H](NC(=O)OC(C)C)C(C)C)cc1 (stereo partly drawn) [iprovalicarb, isopropyl [(1S)-2-methyl-1-(1-p-tolylethylcarbamoyl)propyl]carbamate]
inhibition at 4 µg/mL (Plasmopara viticola [4]): 0%

O=C1c2ccccc2C(=O)N1SC(Cl)(Cl)Cl [folpet]
inhibition at 1 µg/mL (Phytophthora infestans [3]; [6]): 6%
inhibition at 1 µg/mL (Botrytis cinerea; [7]): 2%

OC(Cc1ccccc1Cl)(Cn1nc[nH]c1=S)C1(Cl)CC1 (stereo not shown) [prothioconazole, 2-[2-(1-chlorocyclopropyl)-3-(2-chlorophenyl)-2-hydroxypropyl]-2,4-dihydro-[1,2,4]triazole-3-thione, reference compound]
inhibition at 4 µg/mL (Botrytis cinerea; [7]): 48%
inhibition at 4 µg/mL (Pyricularia oryzae; [8]): 11%

N#Cc1sc2c(=O)c3ccccc3c(=O)c=2sc1C#N [dithianon, 5,10-dioxo-5,10-dihydronaphtho[2,3-b][1,4]dithiin-2,3-dicarbonitrile]
inhibition at 16 µg/mL (Plasmopara viticola [5]): 0%

O=c1c2cc(F)ccc2nc(-n2cncn2)n1-c1ccc(Cl)cc1Cl [fluquinconazole, 3-(2,4-dichlorophenyl)-6-fluoro-2-[1,2,4]-triazol-1-yl-3H-quinazolin-4-one, reference compound]
inhibition at 1 µg/mL (Phytophthora infestans [3]; [6]): 0%
inhibition at 4 µg/mL (Phytophthora infestans [3]; [6]): 0%
inhibition at […] (Botrytis cinerea; [7]): 22%
inhibition at 4 µg/mL (Pyricularia oryzae; [8]): 0%

COC(=O)CC(NC(=O)C(NC(=O)OC(C)C)C(C)C)c1ccc(Cl)cc1 (stereo not shown) [[E-7], methyl 3-(4-chlorophenyl)-3-(2-isopropoxycarbonylamino-3-methyl-butyrylamino)propanoate]
inhibition at 0.25 µg/mL (Plasmopara viticola [4]): 0%

COCC(=O)N(c1c(C)cccc1C)C(C)C(=O)OC (racemic) [metalaxyl, methyl N-(methoxyacetyl)-N-(2,6-xylyl)-DL-alaninate, reference compound]
pest or weed control at 16 ppm (Phytophthora infestans [2]): 33%
pest or weed control at 63 ppm (Phytophthora infestans [2]): 56%
inhibition at 1 µg/mL (Phytophthora infestans [3]; [6]): 6%
inhibition at 4 µg/mL (Phytophthora infestans [3]; [6]): 9%
inhibition at 63 µg/mL (Pyricularia oryzae; [8]): 2%

CC1(c2ccc(Oc3ccccc3)cc2)OC(=O)N(Nc2ccccc2)C1=O (racemic) [famoxadone, (RS)-3-anilino-5-methyl-5-(4-phenoxyphenyl)-1,3-oxazolidine-2,4-dione]
inhibition at 4 µg/mL (Plasmopara viticola [4]): 0%

CCc1nc2ncnn2c(N)c1CCC(C)CC(C)(C)C (stereo not shown) [Compound I-113, 5-ethyl-6-(3,5,5-trimethylhexyl)-[1,2,4]triazolo[1,5-a]pyrimidin-7-ylamine]
pest or weed control at 16 ppm (Phytophthora infestans [2]): 22%
inhibition at 0.25 µg/mL (Phytophthora infestans [3]; [6]): 3%
inhibition at 4 µg/mL (Phytophthora infestans [3]; [6]): 36%
inhibition at 4 µg/mL (Pyricularia oryzae; [8]): 7%

CCCCCCCCc1nc2ncnn2c(N)c1CC [Compound I-290, 6-ethyl-5-octyl-[1,2,4]triazolo[1,5-a]pyrimidin-7-ylamine]
inhibition at 0.25 µg/mL (Phytophthora infestans [3]; [6]): 0%
inhibition at 4 µg/mL (Phytophthora infestans [3]; [6]): 3%
inhibition at […] (Phytophthora infestans [3]; [6]): 0%
inhibition at 1 µg/mL (Botrytis cinerea; [7]): 4%

Cc1nc2ncnn2c(N)c1CCC(C)CC(C)(C)C (stereo not shown) [Compound I-28, 5-methyl-6-(3,5,5-trimethylhexyl)-[1,2,4]triazolo[1,5-a]pyrimidin-7-ylamine]
pest or weed control at 63 ppm (Phytophthora infestans [2]): 44%
inhibition at 0.016 µg/mL (Phytophthora infestans [3]; [6]): 0%
inhibition at 0.25 µg/mL (Phytophthora infestans [3]; [6]): 14%
inhibition at 1 µg/mL (Phytophthora infestans [3]; [6]): 24%
inhibition at […] (Phytophthora infestans [3]; [6]): 0%
inhibition at 4 µg/mL (Botrytis cinerea; [7]): 0%
inhibition at 0.25 µg/mL (Pyricularia oryzae; [8]): 12%
inhibition at 1 µg/mL (Pyricularia oryzae; [8]): 13%

Cc1ccc(-c2c(Cl)nc(C#N)n2S(=O)(=O)N(C)C)cc1 [cyazofamid, 4-chloro-2-cyano-N,N-dimethyl-5-(4-methylphenyl)-1H-imidazole-1-sulfon-amide, reference compound]
pest or weed control at 4 ppm (Phytophthora infestans [2]): 33%
inhibition at 4 µg/mL (Pyricularia oryzae; [8]): 23%

phosphorous acid disodium salt [phosphorous acid disodium salt (Na2HPO3), reference compound]
Observed activity (%) (Phytophthora infestans [1]): 33%
Observed activity (%) (Phytophthora infestans [3]): 6%

Cc1nc2ncnn2c(N)c1-c1ccc(C(C)(C)C)cc1 [Compound I-18, 6-(4-tert-butylphenyl)-5-methyl-[1,2,4]triazolo[1,5-a]pyrimidin-7-ylamine]
pest or weed control at 16 ppm (Phytophthora infestans [2]): 11%
inhibition at 0.25 µg/mL (Phytophthora infestans [3]; [6]): 16%
inhibition at 1 µg/mL (Phytophthora infestans [3]; [6]): 45%
inhibition at […] (Phytophthora infestans [3]; [6]): 6%
inhibition at […] (Botrytis cinerea; [7]): 6%
inhibition at 1 µg/mL (Botrytis cinerea; [7]): 8%
inhibition at 16 µg/mL (Botrytis cinerea; [7]): 11%
inhibition at 0.25 µg/mL (Pyricularia oryzae; [8]): 15%
inhibition at 1 µg/mL (Pyricularia oryzae; [8]): 15%
inhibition at 4 µg/mL (Pyricularia oryzae; [8]): 18%
inhibition at 16 µg/mL (Pyricularia oryzae; [8]): 29%

CCNC(=O)NC(=O)C(C#N)=NOC [cymoxanil, 1-(2-cyano-2-methoxyiminoacetyl)-3-ethylurea, reference compound]
inhibition at 16 µg/mL (Plasmopara viticola [5]): 33%
inhibition at 16 µg/mL (Pyricularia oryzae; [8]): 12%

CCNc1nc(CC)c(C(=O)NC(C#N)c2cccs2)s1 (stereo not shown) [ethaboxam, N-(cyano-2-thienylmethyl)-4-ethyl-2-(ethylamino)-5-thiazolcarboxamide]
inhibition at 0.25 µg/mL (Plasmopara viticola [4]): 33%

CCCCCCCCc1c(CC)nc2ncnn2c1N [Compound I-110, 5-ethyl-6-octyl-[1,2,4]triazolo[1,5-a]pyrimidin-7-ylamine]
inhibition at 4 µg/mL (Phytophthora infestans [1]; [6]): 11%
inhibition at 0.25 µg/mL (Plasmopara viticola [4]): 0%
inhibition at 4 µg/mL (Plasmopara viticola [4]): 0%
inhibition at 4 µg/mL (Plasmopara viticola [5]): 0%
inhibition at 0.016 µg/mL (Phytophthora infestans [3]; [6]): 1%
inhibition at 0.25 µg/mL (Phytophthora infestans [3]; [6]): 5%
inhibition at 1 µg/mL (Phytophthora infestans [3]; [6]): 59%
inhibition at […] (Phytophthora infestans [3]; [6]): 3%
inhibition at […] (Botrytis cinerea; [7]): 8%
inhibition at 0.25 µg/mL (Botrytis cinerea; [7]): 18%
inhibition at 16 µg/mL (Pyricularia oryzae; [8]): 8%

CCCCCCCCc1c(C(F)(F)F)nc2ncnn2c1N [Compound I-98, 6-octyl-5-trifluoromethyl-[1,2,4]triazolo[1,5-a]pyrimidin-7-ylamine]
inhibition at 0.25 µg/mL (Phytophthora infestans [3]; [6]): 6%
inhibition at 1 µg/mL (Phytophthora infestans [3]; [6]): 16%
inhibition at 4 µg/mL (Phytophthora infestans [3]; [6]): 22%
inhibition at […] (Phytophthora infestans [3]; [6]): 5%
inhibition at 0.25 µg/mL (Botrytis cinerea; [7]): 4%
inhibition at 1 µg/mL (Botrytis cinerea; [7]): 5%
inhibition at 0.25 µg/mL (Pyricularia oryzae; [8]): 0%
inhibition at 1 µg/mL (Pyricularia oryzae; [8]): 0%
inhibition at 4 µg/mL (Pyricularia oryzae; [8]): 15%
inhibition at 16 µg/mL (Pyricularia oryzae; [8]): 43%

COC(=O)NCc1cc(C(C)=NOCc2cccc(C)c2)ccc1Cl [[B-6], methyl (2-chloro-5-[1-(3-methylbenzyloxyimino)-ethyl]benzyl)carbamate, reference compound]
inhibition at 16 µg/mL (Plasmopara viticola [4]): 0%
inhibition at 0.25 µg/mL (Phytophthora infestans [3]; [6]): 10%
inhibition at 16 µg/mL (Botrytis cinerea; [7]): 53%

C[Si](Cn1cncn1)(c1ccc(F)cc1)c1ccc(F)cc1 [flusilazole]
inhibition at 1 µg/mL (Phytophthora infestans [3]; [6]): 0%
inhibition at 4 µg/mL (Phytophthora infestans [3]; [6]): 11%
inhibition at 0.25 µg/mL (Botrytis cinerea; [7]): 43%

O=[N+]([O-])c1cc(C(F)(F)F)c(Cl)c([N+](=O)[O-])c1Nc1ncc(C(F)(F)F)cc1Cl [fluazinam]
inhibition at 0.25 µg/mL (Phytophthora infestans [3]; [6]): 9%
inhibition at […] (Botrytis cinerea; [7]): 50%

Cc1c(Br)c2ccc(F)cc2n1S(=O)(=O)c1ncn(S(=O)(=O)N(C)C)n1 [amidosulbrom, N,N-dimethyl-3-(3-bromo-6-fluoro-2-methylindole-1-sulfonyl)-[1,2,4]triazole-1-sulfonamide]
inhibition at 4 µg/mL (Plasmopara viticola [4]): 22%

C=CC1(C)OC(=O)N(c2cc(Cl)cc(Cl)c2)C1=O (stereo not shown) [vinclozolin]
inhibition at 16 µg/mL (Phytophthora infestans [3]; [6]): 0%
inhibition at 1 µg/mL (Botrytis cinerea; [7]): 21%

Cc1nc2ncnn2c(N)c1-c1ccc(Cl)c(Cl)c1 [Compound I-9, 6-(3,4-dichlorophenyl)-5-methyl-[1,2,4]triazolo[1,5-a]pyrimidin-7-ylamine]
inhibition at 0.016 µg/mL (Phytophthora infestans [3]; [6]): 1%
inhibition at 0.25 µg/mL (Phytophthora infestans [3]; [6]): 7%
inhibition at […] (Phytophthora infestans [3]; [6]): 6%
inhibition at 0.25 µg/mL (Botrytis cinerea; [7]): 8%
inhibition at 0.25 µg/mL (Pyricularia oryzae; [8]): 7%
inhibition at 1 µg/mL (Pyricularia oryzae; [8]): 13%

CCCCCCCCc1c(C)nc2ncnn2c1N [Compound I-25, 5-methyl-6-octyl-[1,2,4]triazolo[1,5-a]pyrimidin-7-ylamine]
pest or weed control at 16 ppm (Phytophthora infestans [2]): 0%
inhibition at 0.25 µg/mL (Phytophthora infestans [3]; [6]): 5%
inhibition at 1 µg/mL (Phytophthora infestans [3]; [6]): 13%
inhibition at […] (Phytophthora infestans [3]; [6]): 4%
inhibition at 0.25 µg/mL (Botrytis cinerea; [7]): 5%
inhibition at 1 µg/mL (Pyricularia oryzae; [8]): 24%

CC(CCc1c(C(F)(F)F)nc2ncnn2c1N)CC(C)(C)C (stereo not shown) [Compound I-101, 5-trifluoromethyl-6-(3,5,5-trimethylhexyl)-[1,2,4]triazolo[1,5-a]pyrimidin-7-ylamine]
inhibition at 0.25 µg/mL (Phytophthora infestans [3]; [6]): 3%
inhibition at 4 µg/mL (Phytophthora infestans [3]; [6]): 9%
inhibition at 1 µg/mL (Botrytis cinerea; [7]): 1%
inhibition at 1 µg/mL (Pyricularia oryzae; [8]): 15%
inhibition at 4 µg/mL (Pyricularia oryzae; [8]): 16%
inhibition at 16 µg/mL (Pyricularia oryzae; [8]): 25%

COc1ccc(C(=CC(=O)N2CCOCC2)c2ccc(Cl)cc2)cc1OC [dimethomorph, 3-(4-chlorophenyl)-3-(3,4-dimethoxyphenyl)-1-morpholin-4-ylpropenone, reference compound]
pest or weed control at 4 ppm (Phytophthora infestans [2]): 33%
inhibition at 16 µg/mL (Plasmopara viticola [5]): 67%

[Cu+2].[OH-].[OH-] [Cu(OH)2, copper hydroxide, reference compound]
Observed activity (%) (Phytophthora infestans [1]): 11%
Observed activity (%) (Phytophthora infestans [3]): 2%
